Values after ≈ are worked out from the molar mass of the structure shown. Like-named read-outs stand apart in the source and are kept apart here.
Columns and labels:
[1] = tested on: S. aureus ATCC 29213; assay: MBC assay; format: cell-based, Staphylococcus aureus
Protocol: (§1) The staphylococci and enterococci were cultured and maintained on Mueller-Hinton Medium (agar and broth) at pH 7.2; they were incubated aerobically at 37° C. for 24 hours.
(§2) This assay, normally carried out after an MIC assay, determines the minimum concentration of a compound that is lethal to the micro-organism being tested.
(§3) These samples were then individually sub-cultured on non-selective agar medium, under the incubation conditions described above. Following incubation they were examined visually for bacterial growth.
(§4) The following experiments all used S. aureus ATCC 29213 as the test organism. MIC, MBC and DDA assays, as described above, were carried out using a range of different benzoquinones and hydroquinones. Supplemented DDA assays, in the presence of salt, lipid and blood, were also conducted.

[2] = tested on: S. aureus ATCC 29213; assay: Supplemented disc diffusion assay; format: cell-based, Staphylococcus aureus; conditions: for DDA + lipid / DDA + blood / DDA + salt: S. aureus ATCC 29213, 200 μg per disc (thymoquinone 50 μg, 2,6-dimethoxy-p-benzoquinone 100 μg); for DDA + lipid: Tween 80 at 1% v/v; for DDA + blood: defibrinated horse blood 5% v/v; for DDA + salt: sodium chloride 100 mM; for zone of inhibition at 200 µg/disc: Staphylococcus aureus, ATCC29213, 24 h
Protocol: as §1
(§5) A sterile paper disc was impregnated with a sample of the test compound and a minimum of 30 minutes allowed for the solvents to evaporate as far as possible. The disc was then placed on an agar plate onto which the test micro-organism had been inoculated. The plate was then incubated under the conditions described above, following which it was examined visually for signs of bacterial growth. […] The diameter of this zone of “inhibition” was measured using a ProtoCOL™ automated zone sizer (Synbiosis, Cambridge, UK).
(§6) Performance under these conditions can provide a more reliable indication of activity on topical application. For assays conducted using S. aureus strains, the supplements were defibrinated horse blood (5% v/v), lipid (Tween™ 80 at 1% v/v) and sodium chloride (100 mM). For those using Propionibacterium spp. strains, the supplements were lipid (Tween™ 80 at 1% v/v) and sodium chloride (100 mM).
as §4
(§7) For most DDA assays, 200 μg of each compound was loaded onto each disc.

[3] = tested on: P. acnes NCTC 737; assay: MBC assay; format: cell-based, Propionibacterium acnes
Protocol: (§8) The Propionibacterium spp organisms were cultured and maintained on Wilkins-Chalgren Anaerobe Medium (agar and broth) at pH 6.0; cultures were incubated anaerobically at 37° C. for 72 hours.
as §2, §3
(§9) MIC, MBC and DDA assays, as described above, were carried out using a range of different benzoquinones and hydroquinones. Supplemented DDA assays, in the presence of salt and lipid, were also conducted.

[4] = tested on: S. aureus ATCC 29213; assay: Disc diffusion assay (DDA); format: cell-based, Staphylococcus aureus; conditions: for DDA (diameter of zone of inhibition): S. aureus ATCC 29213, unsupplemented agar, 200 μg per disc (thymoquinone 50 μg, 2,6-dimethoxy-p-benzoquinone 100 μg); for zone of inhibition at 200 µg/disc: Staphylococcus aureus, ATCC29213, read-out: DDA (diameter of zone of inhibition)
Protocol: as §1, §5
(§10) The area of the zone of inhibition was calculated from the measured zone diameter (D) using the formula π(D/2)^2.
as §7

[5] = tested on: P. acnes NCTC 737; assay: MIC assay; format: cell-based, Propionibacterium acnes
Protocol: 2. Propionibacterium spp.—the principal propionibacterial strain used in these studies was Propionibacterium acnes NCTC 737.
as §8
(§11) This is a standard international method for quantitatively assessing the antimicrobial activity of a compound in a liquid medium. The method used a 96-well microtitre plate, capable of holding about 200 μl of liquid per well. […] The culture media were as described above for the relevant test organisms.
(§12) The wells were inoculated with a liquid suspension of freshly grown micro-organism and incubated under the conditions described above. After incubation, the microtitre plate was examined visually (with the aid of a light box) for cloudiness in each well, which would indicate microbial growth. The MIC value was recorded as the lowest concentration of test compound required to inhibit microbial growth, i.e., the lowest concentration for which the liquid in the well remained clear.
(§13) The assays were conducted in duplicate and included both negative (culture medium only) and positive (culture medium, diluting solvent and inoculum) controls.
as §9

[6] = tested on: P. acnes NCTC 737; assay: Supplemented disc diffusion assay; format: cell-based, Propionibacterium acnes; conditions: for DDA + lipid / DDA + salt: P. acnes NCTC 737, 200 μg per disc (2,6-dimethoxy-p-benzoquinone 100 μg); for DDA + lipid: Tween 80 at 1% v/v; for DDA + salt: sodium chloride 100 mM; for zone of inhibition at 200 µg/disc: Cutibacterium acnes, NCTC737, 72 h
Protocol: as §8, §5, §6, §9, §7

[7] = tested on: P. acnes NCTC 737; assay: Disc diffusion assay (DDA); format: cell-based, Propionibacterium acnes; conditions: for DDA (diameter of zone of inhibition): P. acnes NCTC 737, unsupplemented agar, 200 μg per disc (2,6-dimethoxy-p-benzoquinone 100 μg); for zone of inhibition at 200 µg/disc: Cutibacterium acnes, NCTC737, read-out: DDA (diameter of zone of inhibition)
Protocol: as §8, §5, §10, §7

[8] = tested on: S. aureus ATCC 29213; assay: MIC assay; format: cell-based, Staphylococcus aureus
Protocol: 1. Staphylococcus aureus—the principal staphylococcal test micro-organism used in these studies was Staphylococcus aureus ATCC 29213. This strain is the one recommended for QC/QA purposes in Minimum Inhibitory Concentration (MIC) assays by the US Clinical and Laboratory Standards Institute (formerly the NCCLS), an FDA-recognised body.
as §1, §11, §12, §13, §4

[9] = P. acnes NCTC 737, Wilkins-Chalgren broth pH 6.0, anaerobic, 37° C., 72 hours
[10] = S. aureus ATCC 29213, Mueller-Hinton broth pH 7.2, aerobic, 37° C., 24 hours
[11] = Staphylococcus aureus, ATCC29213
[12] = Cutibacterium acnes, NCTC737, 72 h, pH 6
[13] = Staphylococcus aureus, ATCC29213, 24 h, pH 7.2

Row | SMILES | MBC [1] | MIC/MBC ratio [1] | DDA + lipid [2] | DDA + blood [2] | DDA + salt [2] | MBC ([3]; P. acnes NCTC 737) | MIC/MBC ratio ([3]; P. acnes NCTC 737) | DDA (diameter of zone of inhibition) [4] | MIC [5, 9] | DDA + lipid [6] | DDA + salt [6] | DDA (diameter of zone of inhibition) [7] | MIC [8, 10] | MBC [1, 11] | zone of inhibition at 200 µg/disc ([2]; read-out: DDA + blood) | zone of inhibition at 200 µg/disc ([2]; read-out: DDA + lipid) | zone of inhibition at 200 µg/disc ([2]; read-out: DDA + salt) | MBC ([3]; Cutibacterium acnes, NCTC737) | zone of inhibition at 200 µg/disc [4] | MIC [5, 12] | further results
1 | Oc1cc(Cl)c(O)cc1Cl [2,5-dichloro-p-hydroquinone] | 15.6 mg/L (≈ 87.1 µM) | 1 | 15.63 mm | 13.44 mm | 18.75 mm | 62.5 mg/L (≈ 349 µM) | 1 | 19.90 mm | 62.5 mg/L (≈ 349 µM) | 0.0 mm | 18.64 mm | 13.46 mm | 15.6 mg/L (≈ 87.1 µM) | – | – | – | – | – | – | – | –
2 | Cc1cc(O)c(C)c(O)c1 [2,5-dimethylresorcinol] | – | <0.06 | – | – | – | – | 0.125 | – | – | – | – | – | – | > 250 mg/L | 0 mm | 13.8 mm | 16.9 mm | 31.2 mg/L (≈ 226 µM) | 16.7 mm | 3.9 mg/L (≈ 28.2 µM) | zone of inhibition at 200 µg/disc ([6]; read-out: DDA + lipid): 0 mm; zone of inhibition at 200 µg/disc ([6]; read-out: DDA + salt): 0 mm; zone of inhibition at 200 µg/disc [7]: 0 mm; MIC [8, 13]: 15.6 mg/L (≈ 113 µM)
3 | COC1=CC(=O)C=C(OC)C1=O [2,6-dimethoxy-p-benzoquinone] | – | 0.5 | – | – | – | – | 0.5 | – | – | – | – | – | – | 15.6 mg/L (≈ 92.8 µM) | 17.2 mm | 23.7 mm | 22.2 mm | 31.2 mg/L (≈ 186 µM) | 22.2 mm | 15.6 mg/L (≈ 92.8 µM) | zone of inhibition at 200 µg/disc ([6]; read-out: DDA + lipid): 15.6 mm; zone of inhibition at 200 µg/disc ([6]; read-out: DDA + salt): 16.5 mm; zone of inhibition at 200 µg/disc [7]: 0 mm; activity against S. aureus ATCC 29213 (in words) [8]: strongly so; MIC [8, 13]: 7.8 mg/L (≈ 46.4 µM)
4 | Cc1cc(O)cc(C)c1O [2,6-dimethyl-p-hydroquinone] | 7.8 mg/L (≈ 56.5 µM) | 0.5 | 47.94 mm | 25.53 mm | 43.89 mm | 31.25 mg/L (≈ 226 µM) | 0.25 | 40.88 mm | 7.8 mg/L (≈ 56.5 µM) | 0.0 mm | 0.0 mm | 0.0 mm | 3.9 mg/L (≈ 28.2 µM) | – | – | – | – | – | – | – | –
5 | CCc1cc(O)ccc1O [2-ethyl-p-hydroquinone] | – | 0.5 | – | – | – | – | 0.25 | 21.06 mm | 7.8 mg/L (≈ 56.5 µM) | 0.0 mm | – | 9.90 mm | 7.8 mg/L (≈ 56.5 µM) | – | – | – | – | – | – | – | –
